Test results from PMC4837090 (Nature chemical biology, 2016).

Assays:
hAIG1 = target: T1, hAIG1 (Homo sapiens, UniProt Q9NVV5); assay type: binding
T1 sequence (Q9NVV5 1-238): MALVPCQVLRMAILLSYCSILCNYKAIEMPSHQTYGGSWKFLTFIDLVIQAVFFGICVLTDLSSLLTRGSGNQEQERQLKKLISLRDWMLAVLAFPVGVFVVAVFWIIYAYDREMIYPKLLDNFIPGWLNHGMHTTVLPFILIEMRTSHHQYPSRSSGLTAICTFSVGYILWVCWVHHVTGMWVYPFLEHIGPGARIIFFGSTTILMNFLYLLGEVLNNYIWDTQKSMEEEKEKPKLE

LNCaP cells = test: in situ 13C,2H-PAHSA hydrolysis; assay type: cell-based, human; details: 5 μM, 4 h, then 2 μM 13C,2H-PAHSA 2 h

CCCCCCCCCCC[C@@H](C[C@@H]1OC(=O)[C@H]1CCCCCC)OC(=O)[C@H](CC(C)C)NC=O [THL, tetrahydrolipstatin]
inhibition of FP reactivity of AIG1 (hAIG1): did not inhibit
reduction in 13C16-PA and 2H19-HSA products (13C,2H-PAHSA hydrolysis) vs DMSO (LNCaP cells): negligible alterations
